Test results from patent publication US8440637B2, “Combination treatment for the treatment of hepatitis C virus infection” (priority 2007, dated 2013).
l = locked nucleic acid (LNA); d = 2'-deoxy (DNA)

Test system: miR-122a
Test: miR-122a level in transfected Huh-7 cells by miR-122a specific qRT-PCR
Type: cell-based, human
Details: transfected at 1 and 100 nM, 24 hours after transfection
Protocol: The miR-122a expressing cell line Huh-7 was transfected with LNA anti-miR5 at 1 and 100 nM concentrations according to optimized lipofectamine 2000 (LF2000, Invitrogen) protocol (as follows).
Huh-7 cells were cultivated in Eagles MEM with 10% FBS, 2 mM Glutamax I, 1× non-essential amino acids, Gentamicin 25 μg/ml. The cells were seeded in 6-well plates (300000 cells per well), in a total vol. of 2.5 ml the day before transfection. At the day of transfection a solution containing LF2000 diluted in Optimem (Invitrogen) was prepared (1.2 ml optimem+3.75 μl LF2000 per well, final 2.5 μg LF2000/ml, final tot vol 1.5 ml).
LNA Oligonucleotides (LNA anti-miRs) were also diluted in optimem. 285 μl optimem+15 μl LNA oligonucleotide (10 μM oligonucleotide stock for final concentration 100 nM and 0.1 μM for final concentration 1 nM) Cells were washed once in optimem then the 1.2 ml optimem/LF2000 mix were added to each well. Cells were incubated 7 min at room temperature in the LF2000 mix where after the 300 μl oligonucleotide optimem solution was added. […]
miR-122a levels in the RNA samples were assessed on an ABI 7500 Fast real-time PCR instrument (Applied Biosystems, USA) using a miR-122a specific qRT-PCR kit, mirVana (Ambion, USA) and miR-122a primers (Ambion, USA). […]

5′-CcAttGTcaCaCtCC-3′ (antisense CCATTGTCACACTCC; sugars from the 5' end ldlddllddldldll, backbone and methylation of C not given here) [SEQ ID NO: 63]
inhibition of miR-122a (in words): more efficient in inhibiting miR-122a at 1 nM
